Blank lines part the entries; values can stand above or below the compound they belong to. *1 amine or outer side, *2 acyl side, *3 side chain or, on linkers, in order; H or OH if unused. Where a SMILES comes first, the peptide text is derived from it. Bridges are numbered along the chain shown (N, C = ends). TBMB = c1c(C[*:1])cc(C[*:3])cc1C[*:2]
Key:
Plasma kallikrein [1] = target: T1, Plasma kallikrein (Homo sapiens, UniProt P03952); assay: Inhibition of human plasma kallikrein usingPro-Phe-Arg-AMC as substrate incubated for 5 mins; assay type: single protein
Plasma kallikrein [2] = target: T1, Plasma kallikrein; assay: Inhibition of plasma kallikrein (unknown origin)
Plasminogen [3] = target: T2, Plasminogen (Homo sapiens, UniProt P00747); assay: Inhibition of plasmin (unknown origin)
Plasma kallikrein [4] = target: T1, Plasma kallikrein; assay: Inhibition of human plasma kallikrein using H-D-Pro-Phe-Arg-p-nitroaniline as substrate assessed as inhibition constant
Prothrombin [5] = target: T3, Prothrombin (Homo sapiens, UniProt P00734); assay: Inhibition of thrombin (unknown origin)
Coagulation factor XII [6] = target: T4, Coagulation factor XII (Homo sapiens, UniProt P00748); assay: Inhibition of fXIIa (unknown origin)
T4 sequence (P00748 whole entry): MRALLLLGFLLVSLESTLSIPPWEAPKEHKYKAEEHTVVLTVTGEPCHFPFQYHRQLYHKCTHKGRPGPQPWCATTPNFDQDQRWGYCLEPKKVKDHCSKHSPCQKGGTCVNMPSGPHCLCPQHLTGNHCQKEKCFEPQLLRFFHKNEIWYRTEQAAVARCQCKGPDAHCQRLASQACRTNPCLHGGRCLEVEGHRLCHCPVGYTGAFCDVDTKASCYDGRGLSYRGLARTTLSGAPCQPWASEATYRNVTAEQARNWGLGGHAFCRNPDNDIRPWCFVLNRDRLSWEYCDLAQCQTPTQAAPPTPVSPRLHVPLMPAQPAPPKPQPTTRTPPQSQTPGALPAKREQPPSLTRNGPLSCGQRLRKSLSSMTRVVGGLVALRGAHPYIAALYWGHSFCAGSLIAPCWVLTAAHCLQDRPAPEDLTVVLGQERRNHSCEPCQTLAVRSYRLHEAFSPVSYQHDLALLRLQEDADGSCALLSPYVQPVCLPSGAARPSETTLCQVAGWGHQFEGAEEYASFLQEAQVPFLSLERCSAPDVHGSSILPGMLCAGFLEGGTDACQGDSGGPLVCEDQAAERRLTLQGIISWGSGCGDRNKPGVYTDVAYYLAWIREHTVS

Plasminogen [7] = target: T2, Plasminogen; assay: Inhibition of human plasmin by fluorescence based analysis
Prothrombin [8] = target: T3, Prothrombin; assay: Inhibition of human thrombin by fluorescence based analysis
Plasma kallikrein [9] = target: T1, Plasma kallikrein; assay: Inhibition of human plasma kallikrein using H-DPro-Phe-Arg-AFC as substrate
Plasma kallikrein [10] = target: T1, Plasma kallikrein; assay: Inhibition of human plasma kallikrein incubated for 1 hrs
Coagulation factor XI [11] = target: T5, Coagulation factor XI (Homo sapiens, UniProt P03951); assay: Inhibition of human fXIa incubated for 1 hrs
Coagulation factor XI [12] = target: T5, Coagulation factor XI; assay: Inhibition of human fXIa
Kallikrein-1 [13] = target: T6, Kallikrein-1 (Homo sapiens, UniProt P06870); assay: Inhibition of human KLK1
Coagulation factor XI [14] = target: T5, Coagulation factor XI; assay: Inhibition of fXIa (unknown origin)
Kallikrein-1 [15] = target: T6, Kallikrein-1; assay: Inhibition of KLK1 (unknown origin)
Plasma kallikrein [16] = target: Plasma kallikrein (Rattus norvegicus, UniProt P14272); assay: Inhibition of rat recombinant plasma kallikrein using Z-FR-AMC as substrate assessed as inhibition constant by fluorescence plate reader analysis
Plasminogen [17] = target: T2, Plasminogen; assay: Inhibition of human plasmin using H-d-VLK-AM as substrate assessed as inhibition constant by fluorescence plate reader analysis
Prothrombin [18] = target: T3, Prothrombin; assay: Inhibition of human thrombin using Z-GGR-AMC as substrate assessed as inhibition constant by fluorescence plate reader analysis
Coagulation factor XI [19] = target: T5, Coagulation factor XI; assay: Inhibition of human fXIa using Boc-FSR-AMC as substrate assessed as inhibition constant by fluorescence plate reader analysis
Coagulation factor XII [20] = target: T4, Coagulation factor XII; assay: Inhibition of human fXIIa using Z-GGR-AMC as substrate assessed as inhibition constant by fluorescence plate reader analysis
Coagulation factor XII [21] = target: T4, Coagulation factor XII; assay: Inhibition of human fXIIa incubated for 1 hrs

T1 sequence (P03952 20-390 limits assumed): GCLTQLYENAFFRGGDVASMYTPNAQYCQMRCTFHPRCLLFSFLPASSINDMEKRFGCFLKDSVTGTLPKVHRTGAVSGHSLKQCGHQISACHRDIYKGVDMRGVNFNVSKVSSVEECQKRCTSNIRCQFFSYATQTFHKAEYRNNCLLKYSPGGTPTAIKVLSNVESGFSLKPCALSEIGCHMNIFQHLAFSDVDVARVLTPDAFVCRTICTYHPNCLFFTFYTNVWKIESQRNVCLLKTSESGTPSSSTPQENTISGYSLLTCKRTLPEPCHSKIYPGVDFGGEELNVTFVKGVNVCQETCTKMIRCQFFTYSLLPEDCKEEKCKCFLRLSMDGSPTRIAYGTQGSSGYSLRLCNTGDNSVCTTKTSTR
T1 sequence (P03952 391-638 limits assumed): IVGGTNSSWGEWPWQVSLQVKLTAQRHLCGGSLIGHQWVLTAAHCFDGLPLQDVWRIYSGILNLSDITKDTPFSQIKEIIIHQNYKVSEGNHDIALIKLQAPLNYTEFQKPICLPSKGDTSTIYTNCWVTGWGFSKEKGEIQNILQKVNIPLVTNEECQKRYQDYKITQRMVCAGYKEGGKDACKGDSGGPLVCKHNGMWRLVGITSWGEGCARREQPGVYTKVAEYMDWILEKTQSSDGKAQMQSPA
T5 sequence (P03951 19-387 limits assumed): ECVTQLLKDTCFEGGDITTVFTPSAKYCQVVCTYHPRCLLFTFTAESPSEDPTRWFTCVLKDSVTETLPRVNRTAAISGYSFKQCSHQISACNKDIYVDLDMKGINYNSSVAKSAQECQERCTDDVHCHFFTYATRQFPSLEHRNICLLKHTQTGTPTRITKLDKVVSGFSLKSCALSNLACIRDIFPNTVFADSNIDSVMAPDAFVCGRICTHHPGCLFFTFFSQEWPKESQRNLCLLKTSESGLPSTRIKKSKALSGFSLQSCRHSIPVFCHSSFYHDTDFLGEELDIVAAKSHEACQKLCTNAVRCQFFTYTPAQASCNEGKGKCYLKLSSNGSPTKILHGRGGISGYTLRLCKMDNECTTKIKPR
T5 sequence (P03951 388-625 limits assumed): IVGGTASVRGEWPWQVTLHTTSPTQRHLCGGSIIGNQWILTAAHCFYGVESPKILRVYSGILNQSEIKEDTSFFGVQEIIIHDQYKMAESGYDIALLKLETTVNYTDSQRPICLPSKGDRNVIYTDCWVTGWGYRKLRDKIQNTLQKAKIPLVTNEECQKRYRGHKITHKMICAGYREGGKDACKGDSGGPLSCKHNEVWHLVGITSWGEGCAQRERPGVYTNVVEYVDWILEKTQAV
T2 sequence (P00747 97-580 limits assumed): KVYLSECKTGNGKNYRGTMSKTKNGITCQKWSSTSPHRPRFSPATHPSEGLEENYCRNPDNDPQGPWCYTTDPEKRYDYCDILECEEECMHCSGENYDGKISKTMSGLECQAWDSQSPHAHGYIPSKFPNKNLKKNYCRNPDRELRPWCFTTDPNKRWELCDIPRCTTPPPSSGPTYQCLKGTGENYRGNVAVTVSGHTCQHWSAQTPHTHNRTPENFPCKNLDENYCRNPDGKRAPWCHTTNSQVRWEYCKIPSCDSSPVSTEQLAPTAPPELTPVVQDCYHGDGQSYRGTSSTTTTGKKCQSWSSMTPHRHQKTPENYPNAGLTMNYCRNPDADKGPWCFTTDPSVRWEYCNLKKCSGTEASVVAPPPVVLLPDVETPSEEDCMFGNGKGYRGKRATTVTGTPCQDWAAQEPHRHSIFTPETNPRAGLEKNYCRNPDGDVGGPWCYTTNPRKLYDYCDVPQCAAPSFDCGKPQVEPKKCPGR
T2 sequence (P00747 581-810 limits assumed): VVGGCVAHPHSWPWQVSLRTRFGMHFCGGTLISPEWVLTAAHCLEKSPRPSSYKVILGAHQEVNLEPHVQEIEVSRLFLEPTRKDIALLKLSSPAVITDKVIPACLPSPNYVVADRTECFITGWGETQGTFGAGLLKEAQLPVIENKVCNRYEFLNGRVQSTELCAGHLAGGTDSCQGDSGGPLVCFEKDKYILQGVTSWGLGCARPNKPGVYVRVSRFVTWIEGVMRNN
T6 sequence (P06870 whole entry): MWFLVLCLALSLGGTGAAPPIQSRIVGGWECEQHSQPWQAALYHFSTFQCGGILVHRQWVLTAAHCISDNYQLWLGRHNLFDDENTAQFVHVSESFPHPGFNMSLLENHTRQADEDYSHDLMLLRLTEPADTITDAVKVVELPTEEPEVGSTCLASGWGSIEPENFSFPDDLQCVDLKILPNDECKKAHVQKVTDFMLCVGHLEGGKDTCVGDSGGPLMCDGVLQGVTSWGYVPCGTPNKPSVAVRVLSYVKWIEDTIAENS
Plasma kallikrein (Rattus norvegicus, UniProt P14272), sequence (P14272 20-390 limits assumed): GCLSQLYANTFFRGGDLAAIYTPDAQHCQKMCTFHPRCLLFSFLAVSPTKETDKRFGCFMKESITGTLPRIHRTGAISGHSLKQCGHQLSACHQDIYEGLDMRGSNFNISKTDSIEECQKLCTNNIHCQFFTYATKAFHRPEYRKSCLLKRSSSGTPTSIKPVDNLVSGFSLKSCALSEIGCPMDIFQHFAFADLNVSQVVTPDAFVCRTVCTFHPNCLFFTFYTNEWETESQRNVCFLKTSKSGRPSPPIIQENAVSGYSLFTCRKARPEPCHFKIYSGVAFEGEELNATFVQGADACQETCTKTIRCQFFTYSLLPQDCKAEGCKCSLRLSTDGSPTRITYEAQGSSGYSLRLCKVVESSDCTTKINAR
Plasma kallikrein (Rattus norvegicus, UniProt P14272), sequence (P14272 391-638 limits assumed): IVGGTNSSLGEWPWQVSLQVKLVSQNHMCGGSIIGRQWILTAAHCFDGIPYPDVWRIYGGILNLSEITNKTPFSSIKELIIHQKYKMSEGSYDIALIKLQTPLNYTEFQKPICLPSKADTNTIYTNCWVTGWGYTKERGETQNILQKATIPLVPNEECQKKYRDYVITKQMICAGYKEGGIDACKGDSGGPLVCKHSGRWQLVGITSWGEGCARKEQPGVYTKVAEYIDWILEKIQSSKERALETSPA

SMILES: COC(=O)c1ccc(NC(=O)[C@H](CCCCNC(=N)N)NC(=O)C2CCC(CN)CC2)cc1 (stereo partly drawn)
IC50 (Plasma kallikrein [2]): 18000 nM

SMILES: CC(C)COC(=O)c1ccc(NC(=O)[C@H](CCCNC(=N)N)NC(=O)C2CCC(CN)CC2)cc1 (stereo partly drawn)
IC50 (Plasma kallikrein [2]): 15000 nM | IC50 (Plasminogen [3]): 370000 nM

SMILES: CC(=O)c1ccc(NC(=O)C(CCCNC(=N)NS(=O)(=O)c2c(C)cc(C)cc2C)NC(=O)C2CCC(CN)CC2)cc1 (stereo not drawn)
IC50 (Plasma kallikrein [2]): 2000 nM | IC50 (Plasminogen [3]): 42000 nM

SMILES: CCCOC(c1ccccc1)c1cccc(NC(=O)c2cc(C(F)(F)F)nn2-c2cccc(CN)c2)c1 (stereo not drawn)
IC50 (Plasma kallikrein [4]): > 50000 nM

SMILES: COC(=O)c1ccc(NC(=O)[C@H](CCCCN)NC(=O)C2CCC(CN)CC2)cc1 (stereo partly drawn)
IC50 (Plasma kallikrein [2]): 50000 nM | IC50 (Plasminogen [3]): > 500000 nM

SMILES: CCOc1ccc(C[C@@H](NC(=O)c2ccccc2)C(=O)N[C@@H](Cc2ccccc2)C(=O)NCc2ccc(CN)cc2)cc1
IC50 (Plasminogen [3]): 22 nM | IC50 (Prothrombin [5]): > 10000 nM | IC50 (Coagulation factor XII [6]): > 50000 nM | IC50 (Plasminogen [7]): > 10000 nM | IC50 (Prothrombin [8]): > 10000 nM

SMILES: CCO[C@@H]1C[C@H](C(=O)Nc2cc(C(N)(CCC3CC3)c3ccccn3)ccc2F)N(C(=O)Nc2ccc(Cl)cc2)C1 (stereo partly drawn)
IC50 (Plasma kallikrein [4]): < 50 nM

SMILES: Nc1nn(Cc2ccc(Cn3ccccc3=O)cc2)cc1C(=O)NCCOc1cccc(Cl)c1
IC50 (Coagulation factor XI [14]): 2.9 nM | IC50 (Kallikrein-1 [15]): 2.9 nM

SMILES: CC(N)C(=O)NC1CSCc2cc3cc(c2)CSCC(C(=O)NC(C)C(N)=O)NC(=O)C(CCCNC(=N)N)NC(=O)C(C(C)C)NC(=O)C(CC(N)=O)NC(=O)C(CSC3)NC(=O)C(C)NC(=O)C(CCCCN)NC(=O)C(Cc2ccccc2)NC1=O (stereo not drawn) (H-ACFKACNVRCA-NH2; linker 2-6-10 via TBMB; configuration not given here)
Ki (Plasma kallikrein [16]): 27.2 nM | Ki (Plasminogen [17]): 5.2 nM | IC50 (Prothrombin [18]): > 50000 nM | Ki (Coagulation factor XI [19]): > 50000 nM | Ki (Coagulation factor XII [20]): > 50000 nM

SMILES: CO[C@@H]1C[C@H](C(=O)Nc2cc(C(N)(CCC3CC3)c3cccc(C#N)c3)ccc2F)N(C(=O)Nc2ccc(Cl)cn2)C1 (stereo partly drawn)
IC50 (Plasma kallikrein [4]): < 50 nM

SMILES: NC(CCC1CC1)(c1ccc(F)c(NC(=O)[C@H]2CC(F)(F)CN2C(=O)Nc2ccc(Cl)cn2)c1)c1ccccn1 (stereo partly drawn)
IC50 (Plasma kallikrein [4]): < 50 nM

SMILES: NC(CCC1CC1)(c1ccc(F)c(NC(=O)[C@H]2C[C@](O)(c3ccccc3)CN2C(=O)Nc2ccc(Cl)cc2)c1)c1ccccn1 (stereo partly drawn)
IC50 (Plasma kallikrein [4]): < 50 nM

Continued, values first:

IC50 (Plasma kallikrein [1]): < 100 nM
SMILES: Fc1cc2[nH]cc(Cl)c2cc1CNc1ncnc2nc(Cc3ccc4ncc(C(F)(F)F)cc4c3)[nH]c12

IC50 (Plasma kallikrein [1]): < 100 nM
SMILES: Cc1cc(N)nc(C)c1CNC(=O)c1cncc(Cc2ccc3ncc(Cl)cc3c2)c1

IC50 (Plasma kallikrein [1]): < 100 nM
SMILES: Clc1cnc2ccc(Cc3nc4ncnc(NCc5n[nH]c6ccc(Cl)cc56)c4[nH]3)cc2c1

IC50 (Plasma kallikrein [1]): < 100 nM
SMILES: Cc1cc(N)nc(C)c1CNc1ncnc2nc(Cc3ccc4ncc(C(F)(F)F)cc4c3)[nH]c12

IC50 (Plasma kallikrein [1]): < 100 nM
SMILES: Fc1cc2[nH]cc(Cl)c2cc1CNc1ncnc2nc(Cc3ccc4ncc(Cl)cc4c3)[nH]c12

IC50 (Plasma kallikrein [9]): 0.56 nM
SMILES: COCc1nn(Cc2ccc(Cn3cccn3)cc2)cc1C(=O)NCc1ccc2c(N)nccc2c1C

IC50 (Plasma kallikrein [10]): 2.4 nM | IC50 (Coagulation factor XI [11]): 106000 nM
SMILES: Cc1cc(N)nc(C)c1CNC(=O)c1cnn(Cc2ccc(Cn3cccn3)cc2)c1

IC50 (Plasma kallikrein [2]): 2.9 nM | IC50 (Coagulation factor XI [12]): > 10000 nM | IC50 (Kallikrein-1 [13]): > 40000 nM
SMILES: Cc1cc(C)n(Cc2ccc(Cn3cc(C(=O)NCc4c(C)cc(N)nc4C)nn3)cc2)n1

IC50 (Plasma kallikrein [10]): 1 nM
SMILES: Cc1cnn(Cc2ccc(Cn3cc(C(=O)NCc4cnc5[nH]cc(Cl)c5c4)c(C#N)n3)cc2)c1

IC50 (Plasma kallikrein [10]): 2 nM | IC50 (Coagulation factor XII [21]): 3600 nM
SMILES: Cc1nc(N)cc2c1CNC(=O)c1cnn(c1)Cc1ccc(Cn3cccn3)cc1OCCC/C=C\CCO2

From ChEMBL document CHEMBL5233226 (Eur J Med Chem, 2020)
